Values after ≈ are worked out from the molar mass of the structure shown. Where two headings read alike, the source gives them in different places.
What was measured:
Assay in all cases: Antibacterial activity (minimum inhibitory concentration), tube dilution method
Type in all cases: cell-based
[1] = system: Bacillus subtilis NRRL B558; conditions: for MIC: Bacillus subtilis
Description: (§1) The antibacterial activities of some typical compounds of this invention were measured by a tube dilution method in a brain heart infusion broth (pH 7.5) as a culture medium.

[2] = system: Klebsiella pneumoniae PCI602
Description: as §1

[3] = system: Staphylococcus aureus 209P
Description: as §1

[4] = system: Staphylococcus aureus MS9861; conditions: for MIC: Staphylococcus aureus
Description: as §1

[5] = NRRLB558, tube dilution method, brain heart infusion broth (pH 7.5), read-out: minimum inhibitory concentration, Bacillus subtilis NRRL B558
[6] = PCI602, tube dilution method, brain heart infusion broth (pH 7.5), read-out: minimum inhibitory concentration, Klebsiella pneumoniae PCI602
[7] = tube dilution method, brain heart infusion broth (pH 7.5), read-out: minimum inhibitory concentration, Staphylococcus aureus 209P
[8] = MS9861, tube dilution method, brain heart infusion broth (pH 7.5), read-out: minimum inhibitory concentration, Staphylococcus aureus MS9861
[9] = tube dilution method, brain heart infusion broth (pH 7.5)

Compound | MIC [1, 5] | MIC [2, 6] | MIC [3, 7] | MIC [4, 8] | MIC ([1]; NRRLB558, pH 7.5, read-out: minimum inhibitory concentration, Bacillus subtilis NRRL B558, tube dilution method, brain heart infusion broth (pH 7.5)) | minimum inhibitory concentration, Bacillus subtilis NRRL B558 [1, 9] | MIC ([2]; PCI602, pH 7.5, read-out: minimum inhibitory concentration, Klebsiella pneumoniae PCI602) | MIC ([3]; pH 7.5, read-out: minimum inhibitory concentration, Staphylococcus aureus 209P) | MIC ([4]; MS9861, pH 7.5, read-out: minimum inhibitory concentration, Staphylococcus aureus MS9861, tube dilution method, brain heart infusion broth (pH 7.5)) | minimum inhibitory concentration, Staphylococcus aureus MS9861 [4, 9]
CCC1OC(=O)CC(O)C(C)C(OC2OC(C)C(OC3CC(C)(O)C(OC(=O)CC(C)C)C(C)O3)C(N(C)C)C2O)C(CC=O)CC(C)C(=O)C=CC(C)=CC1CSc1ccccc1 (centres unmarked) [R1=H, R3=drawing 82, AR4=drawing 83] | 3.1 µg/mL (≈ 3.38 µM) | > 100 µg/mL | 3.1 µg/mL (≈ 3.38 µM) | 6.3 µg/mL (≈ 6.86 µM) |  |  |  |  |  | 
CCC1OC(=O)CC(O)C(C)C(OC2OC(C)C(OC3CC(C)(O)C(O)C(C)O3)C(N(C)C)C2O)C(CC=O)CC(C)C(=O)C=CC(C)=CC1CO (centres unmarked) [Antibiotic YO9010, 23-demycinosyltylosin, reference compound] | 1.6 µg/mL (≈ 2.16 µM) | 12.5 µg/mL (≈ 16.8 µM) | 0.8 µg/mL (≈ 1.08 µM) | 3.1 µg/mL (≈ 4.18 µM) |  |  |  |  |  | 
CCC1OC(=O)CC(OC(C)=O)C(C)C(OC2OC(C)C(OC3CC(C)(O)C(OC(=O)CC(C)C)C(C)O3)C(N(C)C)C2O)C(CC=O)CC(C)C(=O)C=CC(C)=CC1CBr (centres unmarked) [R1=COCH3, R3=drawing 68, AR4=Br, 3-O-Acetyl-23-deoxy-23-bromo-4"-O-isovaleryl-YO-9010] | 1.6 µg/mL (≈ 1.72 µM) | > 100 µg/mL | 1.6 µg/mL (≈ 1.72 µM) | 3.1 µg/mL (≈ 3.33 µM) |  |  |  |  |  | 
CCC1OC(=O)CC(O)C(C)C(OC2OC(C)C(OC3CC(C)(O)C(OC(=O)CC(C)C)C(C)O3)C(N(C)C)C2O)C(CC=O)CC(C)C(=O)C=CC(C)=CC1CBr (centres unmarked) [R1=H, R3=drawing 68, AR4=Br, 23-Deoxy-23-bromo-4"-O-isovaleryl-YO-9010] | 0.4 µg/mL (≈ 0.45 µM) | 6.3 µg/mL (≈ 7.09 µM) | 0.8 µg/mL (≈ 0.9 µM) | 1.6 µg/mL (≈ 1.8 µM) |  |  |  |  |  | 
CCC1OC(=O)CC(O)C(C)C(OC2OC(C)C(OC3CC(C)(O)C(O)C(C)O3)C(N(C)C)C2O)C(CC=O)CC(C)C(=O)C=CC(C)=CC1COC(C)=O (centres unmarked) [R1=H, R3=H, AR4=OCOCH3] | 0.4 µg/mL (≈ 0.51 µM) | 25 µg/mL (≈ 31.9 µM) | 0.4 µg/mL (≈ 0.51 µM) | 1.6 µg/mL (≈ 2.04 µM) |  |  |  |  |  | 
CCC1OC(=O)CC(O)C(C)C(OC2OC(C)C(OC3CC(C)(O)C(O)C(C)O3)C(N(C)C)C2O)C(CC=O)CC(C)C(=O)C=CC(C)=CC1COC(=O)Cc1ccccc1 (centres unmarked) [R1=H, R3=H, AR4=drawing 71] |  |  |  |  | < 0.2 µg/mL | 0.4 µg/mL (≈ 0.465 µM) | 6.3 µg/mL (≈ 7.33 µM) | 0.4 µg/mL (≈ 0.465 µM) | 1.6 µg/mL (≈ 1.86 µM) | 3.1 µg/mL (≈ 3.6 µM)
CCC1OC(=O)CC(OC(C)=O)C(C)C(OC2OC(C)C(OC3CC(C)(O)C(OC(=O)CC(C)C)C(C)O3)C(N(C)C)C2O)C(CC=O)CC(C)C(=O)C=CC(C)=CC1CO (centres unmarked) [N-1 substance, 3-O-acetyl-4"-O-isovaleryl-YO-9010, reference compound] | 0.8 µg/mL (≈ 0.922 µM) | 3.1 µg/mL (≈ 3.57 µM) | 0.4 µg/mL (≈ 0.461 µM) | 1.6 µg/mL (≈ 1.84 µM) |  |  |  |  |  | 
CCC1OC(=O)CC(O)C(C)C(OC2OC(C)C(OC3CC(C)(OC(C)=O)C(OC(=O)CC(C)C)C(C)O3)C(N(C)C)C2O)C(CC=O)CC(C)C(=O)C=CC(C)=CC1CO (centres unmarked) [(R2)=COCH3, R3=drawing 66, AR4=OH, 3"-O-acetyl-4"-O-isovaleryl-YO-9010] | 0.4 µg/mL (≈ 0.461 µM) | > 100 µg/mL | 0.8 µg/mL (≈ 0.922 µM) | 3.1 µg/mL (≈ 3.57 µM) |  |  |  |  |  | 
CCC1OC(=O)CC(O)C(C)C(OC2OC(C)C(OC3CC(C)(O)C(OC(=O)CC(C)C)C(C)O3)C(N(C)C)C2O)C(CC=O)CC(C)C(=O)C=CC(C)=CC1COC(C)=O (centres unmarked) [R1=H, R3=drawing 75, AR4=OCOCH3, 23-O-Acetyl-4"-O-isovaleryl-YO-9010] | 1.6 µg/mL (≈ 1.84 µM) | 3.1 µg/mL (≈ 3.57 µM) | 0.8 µg/mL (≈ 0.922 µM) | 6.3 µg/mL (≈ 7.26 µM) |  |  |  |  |  | 
CCC1OC(=O)CC(O)C(C)C(OC2OC(C)C(OC3CC(C)(O)C(O)C(C)O3)C(N(C)C)C2O)C(CC=O)CC(C)C(=O)C=CC(C)=CC1COC(=O)C(O)c1ccccc1 (centres unmarked) [R1=H, R3=H, AR4=drawing 73] | < 0.2 µg/mL | 12.5 µg/mL (≈ 14.3 µM) | 0.4 µg/mL (≈ 0.457 µM) | 1.6 µg/mL (≈ 1.83 µM) |  |  |  |  |  | 
CCC1OC(=O)CC(O)C(C)C(OC2OC(C)C(OC3CC(C)(O)C(OC(=O)CC(C)C)C(C)O3)C(N(C)C)C2O)C(CC=O)CC(C)C(=O)C=CC(C)=CC1COC(=O)CC(C)C (centres unmarked) [R1=H, R3=drawing 77, AR4=drawing 78] | 0.8 µg/mL (≈ 0.879 µM) | 6.3 µg/mL (≈ 6.92 µM) | 1.6 µg/mL (≈ 1.76 µM) | 12.5 µg/mL (≈ 13.7 µM) |  |  |  |  |  | 
CCC1OC(=O)CC(O)C(C)C(OC2OC(C)C(OC3CC(C)(OC(C)=O)C(OC(=O)CC(C)C)C(C)O3)C(N(C)C)C2O)C(CC=O)CC(C)C(=O)C=CC(C)=CC1COC(C)=O (centres unmarked) [(R2)=COCH3, R3=drawing 75, AR4=OCOCH3] | 1.6 µg/mL (≈ 1.76 µM) | 25 µg/mL (≈ 27.5 µM) | 1.6 µg/mL (≈ 1.76 µM) | 6.3 µg/mL (≈ 6.92 µM) |  |  |  |  |  | 
CCC1OC(=O)CC(O)C(C)C(OC2OC(C)C(OC3CC(C)(O)C(OC(C)=O)C(C)O3)C(N(C)C)C2O)C(CC=O)CC(C)C(=O)C=CC(C)=CC1CO (centres unmarked) [R1=H, R3=COCH3, AR4=OH] | 1.6 µg/mL (≈ 2.04 µM) | 3.1 µg/mL (≈ 3.95 µM) | 1.6 µg/mL (≈ 2.04 µM) | 25 µg/mL (≈ 31.9 µM) |  |  |  |  |  | 
CCC1OC(=O)CC(O)C(C)C(OC2OC(C)C(OC3CC(C)(O)C(OC(=O)CSc4ccccc4)C(C)O3)C(N(C)C)C2O)C(CC=O)CC(C)C(=O)C=CC(C)=CC1COC(C)=O (centres unmarked) [R1=H, R3=drawing 76, AR4=OCOCH3] | 0.2 µg/mL (≈ 0.214 µM) | 100 µg/mL (≈ 107 µM) | 0.8 µg/mL (≈ 0.856 µM) | 1.6 µg/mL (≈ 1.71 µM) |  |  |  |  |  | 
CCC1OC(=O)CC(O)C(C)C(OC2OC(C)C(OC3CC(C)(O)C(OC(=O)CSc4ccccc4)C(C)O3)C(N(C)C)C2O)C(CC=O)CC(C)C(=O)C=CC(C)=CC1CO (centres unmarked) [R1=H, R3=drawing 67, AR4=OH] | < 0.2 µg/mL | 3.1 µg/mL (≈ 3.47 µM) | 0.4 µg/mL (≈ 0.448 µM) | 3.1 µg/mL (≈ 3.47 µM) |  |  |  |  |  | 
CCC1OC(=O)CC(O)C(C)C(OC2OC(C)C(OC3CC(C)(O)C(OC(=O)CSc4ccncc4)C(C)O3)C(N(C)C)C2O)C(CC=O)CC(C)C(=O)C=CC(C)=CC1CBr (centres unmarked) [R1=H, R3=drawing 70, AR4=Br] | < 0.2 µg/mL | 12.5 µg/mL (≈ 13.1 µM) | 0.2 µg/mL (≈ 0.209 µM) | 0.8 µg/mL (≈ 0.837 µM) |  |  |  |  |  | 
CCC1OC(=O)CC(O)C(C)C(OC2OC(C)C(OC3CC(C)(O)C(O)C(C)O3)C(N(C)C)C2O)C(CC=O)CC(C)C(=O)C=CC(C)=CC1CSC (centres unmarked) [R1=H, R3=H, AR4=SCH3, 23-Deoxy-23-methylthio-YO-9010] | 0.8 µg/mL (≈ 1.04 µM) | 6.3 µg/mL (≈ 8.16 µM) | 0.8 µg/mL (≈ 1.04 µM) | 1.6 µg/mL (≈ 2.07 µM) |  |  |  |  |  | 
CCC1OC(=O)CC(O)C(C)C(OC2OC(C)C(OC3CC(C)(O)C(OC(=O)CSc4ccccc4)C(C)O3)C(N(C)C)C2O)C(CC=O)CC(C)C(=O)C=CC(C)=CC1CBr (centres unmarked) [R1=H, R3=drawing 69, AR4=Br] | 1.6 µg/mL (≈ 1.68 µM) | > 100 µg/mL | 0.4 µg/mL (≈ 0.419 µM) | 3.1 µg/mL (≈ 3.25 µM) |  |  |  |  |  | 
CCC1OC(=O)CC(O)C(C)C(OC2OC(C)C(OC3CC(C)(O)C(O)C(C)O3)C(N(C)C)C2O)C(CC=O)CC(C)C(=O)C=CC(C)=CC1COS(=O)(=O)c1ccc(C)cc1 (centres unmarked) [R1=H, R3=H, AR4=drawing 79] | 0.4 µg/mL (≈ 0.446 µM) | 25 µg/mL (≈ 27.9 µM) | 0.8 µg/mL (≈ 0.893 µM) | 6.3 µg/mL (≈ 7.03 µM) |  |  |  |  |  | 
CCC1OC(=O)CC(O)C(C)C(OC2OC(C)C(OC3CC(C)(O)C(O)C(C)O3)C(N(C)C)C2O)C(CC=O)CC(C)C(=O)C=CC(C)=CC1CSc1ccccc1 (centres unmarked) [R1=H, R3=H, AR4=drawing 80] | < 0.2 µg/mL | 25 µg/mL (≈ 30 µM) | < 0.2 µg/mL | 1.6 µg/mL (≈ 1.92 µM) |  |  |  |  |  | 
CCC1OC(=O)CC(O)C(C)C(OC2OC(C)C(OC3CC(C)(O)C(OC(=O)CC(C)C)C(C)O3)C(N(C)C)C2O)C(CC=O)CC(C)C(=O)C=CC(C)=CC1CO (centres unmarked) [R1=H, R3=drawing 66, AR4=OH, 4"-O-isovaleryl-YO-9010] | 0.8 µg/mL (≈ 0.968 µM) | 1.6 µg/mL (≈ 1.94 µM) | 0.4 µg/mL (≈ 0.484 µM) | 1.6 µg/mL (≈ 1.94 µM) |  |  |  |  |  | 
CCC1OC(=O)CC(O)C(C)C(OC2OC(C)C(OC3CC(C)(O)C(O)C(C)O3)C(N(C)C)C2O)C(CC=O)CC(C)C(=O)C=CC(C)=CC1COC(=O)CSc1ccncc1 (centres unmarked) [R1=H, R3=H, AR4=drawing 72] | < 0.2 µg/mL | 12.5 µg/mL (≈ 14 µM) | 0.8 µg/mL (≈ 0.896 µM) | 3.1 µg/mL (≈ 3.47 µM) |  |  |  |  |  | 
CCC1OC(=O)CC(O)C(C)C(OC2OC(C)C(OC3CC(C)(O)C(O)C(C)O3)C(N(C)C)C2O)C(CC=O)CC(C)C(=O)C=CC(C)=CC1COC1CCCCO1 (centres unmarked) [R1=H, R3=H, AR4=drawing 84] | 0.8 µg/mL (≈ 0.968 µM) | 12.5 µg/mL (≈ 15.1 µM) | 0.8 µg/mL (≈ 0.968 µM) | 3.1 µg/mL (≈ 3.75 µM) |  |  |  |  |  | 
CCC1OC(=O)CC(O)C(C)C(OC2OC(C)C(OC3CC(C)(O)C(O)C(C)O3)C(N(C)C)C2O)C(CC=O)CC(C)C(=O)C=CC(C)=CC1CI (centres unmarked) [R1=H, R3=H, AR4=I, 23-Deoxy-23-iodo-YO-9010] | < 0.2 µg/mL | 6.3 µg/mL (≈ 7.4 µM) | 0.4 µg/mL (≈ 0.47 µM) | 3.1 µg/mL (≈ 3.64 µM) |  |  |  |  |  | 

— patent publication US4463171A, “Derivatives of macrolide antibiotics” (Sanraku-Ocean Co., Ltd., priority 1982, dated 1984)
